Measured values from paper PMC6838683, “Discovery of Human Signaling Systems: Pairing Peptides to G Protein-Coupled Receptors” (Cell, 2019).
Read-outs that look alike come from different tables or passages of the source. No end group written: not given here.

Experiments:
GPR15 (human) = target: T1, GPR15 (human) (UniProt P49685)
T1 sequence: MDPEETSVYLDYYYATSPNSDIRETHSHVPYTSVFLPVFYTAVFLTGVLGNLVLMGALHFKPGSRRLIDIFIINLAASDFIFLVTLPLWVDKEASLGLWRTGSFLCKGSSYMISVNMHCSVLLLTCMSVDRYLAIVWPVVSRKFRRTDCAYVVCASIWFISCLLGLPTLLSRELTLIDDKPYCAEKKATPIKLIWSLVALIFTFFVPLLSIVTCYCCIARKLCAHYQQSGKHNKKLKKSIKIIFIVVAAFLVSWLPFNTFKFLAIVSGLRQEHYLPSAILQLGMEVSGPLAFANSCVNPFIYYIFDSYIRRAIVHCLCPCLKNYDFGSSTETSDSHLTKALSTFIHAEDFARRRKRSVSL

GPR32 = assay: Repeat of proposed literature pairing (mass redistribution and/or internalization); assay type: cell-based, human
Source text: (§1) DMR assays provide a single integrated readout of ligand-dependent cellular response, utilizing an optical biosensor in specialized microplates to detect wavelength shifts of reflected light as it passes through the biosensor and the lower portion of the cell (∼150-200 nm). As a signal pathway agnostic approach, DMR assays are well-suited to the study of GPCRs ([Fang et al., 2008], [Schröder et al., 2011]). The mass redistribution response (Δ picometer (pm)) likely reflects a number of intracellular events, including cytoskeletal rearrangement, protein trafficking and receptor internalization. Orphan receptor-expressing cells were gently washed twice with assay buffer (HBSS with 1 mM CaCl2, 1 mM MgCl2, 20 mM HEPES, 0.01% pluronic F-68, pH 7.4) containing 0.1% DMSO and cells were equilibrated for 90 min at 22°C in the EPIC Benchtop (BT) System (Corning) to establish a stable DMR signal. After 3-5 min baseline recordings, peptides (10 μM) were added in duplicate wells using an electronic 384-channel Viaflo pipette (Integra Biosciences, Switzerland) and DMR responses were measured for 60 min at 22°C. 100 nM norepinephrine was included as an internal assay control to assess the cellular DMR response via endogenously-expressed adrenoceptors in the TREx 293 cells. Real-time data were processed using the BT to column converter MS-Excel macro (Corning) and analyzed in GraphPad Prism 7.0. DMR recordings in peptide screening experiments were buffer and solvent corrected and the area under the curve (AUC) was quantified. For subsequent validation experiments, peptides were diluted in assay buffer containing 0.1% DMSO and DMR assays were performed as above. […] Data represent mean ± standard error of the mean (SEM) from at least 3 biologically independent experiments.
(§2) A TR-FRET real-time internalization assay was used to examine peptide-dependent changes in orphan receptor localization as described previously ([Foster and Bräuner-Osborne, 2018]). Surface-expressed SNAP-tagged receptors were labeled with a cell-impermeable luminescent terbium cryptate (100 nM SNAP Lumi4-Tb; Cisbio, France) for 1 hr at 37°C. Cells were washed to remove excess terbium and incubated with fluorescein-O-acetic acid (100 μM; Sigma Aldrich) for 5 min at 37°C. Peptides were added as for DMR assays, and internalization responses were recorded for 60 min at 37°C using an EnVision 2104 Multimode plate reader (PerkinElmer). 100 nM GLP-1 was used as a positive control for SNAP-GLP1R internalization. Real-time internalization responses were calculated based on TR-FRET (excitation 340 nm; emission 520 nm and 615 nm), and were expressed as the ratio between donor (terbium) and acceptor (fluorescein) emission. For peptide screening analysis (both DMR and internalization assays), we calculated the area under the curve from the real-time traces. As the magnitude of the responses was variable between orphan receptor targets, particularly for the SNAP-tag based internalization assay where the signal is dependent on receptor surface expression, the AUC values were normalized to their respective plate averages and expressed as fold change. Validation experiments for receptor internalization were performed as above. Internalization data was processed in MS-Excel and area under the curve was used to generate concentration-response curves using GraphPad Prism 7.0. Data represent mean ± standard error of the mean (SEM) from at least 3 biologically independent experiments.

human GPCRs = tested on: human GPCRs; parameters: method as in Guide to Pharmacology database; conditions: max reported value, ref Guide to Pharmacology database, cited from earlier work
Source text: Supplement mmc1.xlsx, sheet "HumanGPCRLigands" | column: pKi_value; pKd_value; pEC50_value; pIC50_value

[1] = target: T2, melanocortin MC4 receptor (Homo sapiens, UniProt P32245); assay: β-arrestin recruitment (Tango), known peptide receptors; assay type: cell-based; conditions: MC4R; mean, n = 3
T2 construct: host or cells: HTLA cells (HEK293-derived)
T2 sequence (P32245 whole entry): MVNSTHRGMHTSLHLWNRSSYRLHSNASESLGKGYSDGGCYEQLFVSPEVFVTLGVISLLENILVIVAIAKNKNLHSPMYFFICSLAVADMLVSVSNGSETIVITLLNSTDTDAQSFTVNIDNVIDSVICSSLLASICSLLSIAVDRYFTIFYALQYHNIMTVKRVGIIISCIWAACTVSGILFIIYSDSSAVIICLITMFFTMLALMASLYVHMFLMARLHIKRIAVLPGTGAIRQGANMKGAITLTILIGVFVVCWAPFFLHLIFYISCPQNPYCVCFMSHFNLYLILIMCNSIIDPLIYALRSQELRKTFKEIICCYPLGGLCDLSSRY
Experimental: (§3) The peptide library was additionally screened against 120 GPCR targets in parallel, including all available orphan receptors and 27 known class A peptide receptors using the Tango assay platform ([Kroeze et al., 2015]). Briefly, HTLA cells (a HEK293 cell line stably expressing a tTA-dependent luciferase reporter and a β-arrestin2-TEV fusion gene) were plated 10,000 cells/well in poly-L-lysine–coated clear-bottom white 384-well plates in DMEM supplemented with 10% FBS, 100 U/ml penicillin and 100 μg/ml streptomycin, 2 μg/ml puromycin and 100 μg/ml hygromycin B. 24 hr later, cells were transfected with Tango GPCR constructs using the calcium phosphate method ([Jordan et al., 1996]). The next day, culture medium was changed to DMEM + 1% dFBS and 10 μM peptides were added for overnight stimulation. Bright-Glo solution (Promega) was incubated for 15–20 min at room temperature, and luminescence was counted using a Trilux luminescence counter (Wallac).
(§4) For subsequent peptide validation experiments using Tango assays, HTLA cells were transiently transfected in 10 cm dishes with the receptor of interest using polyethylenimine (PEI) ([Longo et al., 2013]). After 24 hr, 25,000 cells/well were plated in clear bottom, white-walled 384-well plates. Assays were performed as described above, with luminescence measured using an EnSpire 2300 Multimode plate reader (PerkinElmer). Luminescence counts were exported into Excel and were analyzed using GraphPad Prism 7.

NPFF2 = assay: as above; assay type: cell-based, human; conditions: endogenous ligand(s) included in peptide library
Source text: Supplement mmc6.xlsx, sheet "Peptide GPCR controls" | column: Confirmed?

GPR83 = assay: Repeat of proposed literature pairing (mass redistribution and/or internalization); assay type: cell-based, human
Source text: as §1, §2

GPR176 = target: T3, GPR176 (Homo sapiens, UniProt Q14439); assay: β-arrestin recruitment (Tango), indicative pairing; assay type: cell-based; conditions: mean, n = 3
T3 construct: host or cells: HTLA cells (HEK293-derived)
T3 sequence (Q14439 1-515): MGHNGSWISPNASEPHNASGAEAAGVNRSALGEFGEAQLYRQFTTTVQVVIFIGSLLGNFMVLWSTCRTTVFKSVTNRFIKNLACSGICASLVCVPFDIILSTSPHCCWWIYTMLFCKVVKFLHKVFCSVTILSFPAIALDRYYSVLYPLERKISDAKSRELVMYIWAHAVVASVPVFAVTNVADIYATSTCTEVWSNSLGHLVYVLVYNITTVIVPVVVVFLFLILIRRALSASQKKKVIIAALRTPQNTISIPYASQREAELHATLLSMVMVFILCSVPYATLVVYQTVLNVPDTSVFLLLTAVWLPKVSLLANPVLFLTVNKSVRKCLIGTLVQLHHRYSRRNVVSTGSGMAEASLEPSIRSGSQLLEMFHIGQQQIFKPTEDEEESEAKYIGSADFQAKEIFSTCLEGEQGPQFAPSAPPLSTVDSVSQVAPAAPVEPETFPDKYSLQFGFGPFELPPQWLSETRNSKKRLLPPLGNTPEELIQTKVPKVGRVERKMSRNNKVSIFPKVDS
Experimental: as §3, §4

GPR19 = assay: Repeat of proposed literature pairing (mass redistribution and/or internalization); assay type: cell-based, human
GPR151 = assay: as above; assay type: cell-based, human
Source text: as §1, §2

P2RY10 = assay: as above; assay type: cell-based, human; conditions: for receptor-dependent activation by proposed ligand, P2RY10: repeat of literature pairing across multiple assays, Figure S7A, Tables S5 and S7
Source text: as §1, §2

GPR37 = assay: as above; assay type: cell-based, human
Source text: as §1, §2

GPR37L1 = assay: as above; assay type: cell-based, human
Source text: as §1, §2

[2] = repeat of literature pairing, Figure S7A, Tables S5 and S7
[3] = receptor galr1_human (GALR1, P47211)
[4] = receptor galr2_human (GALR2, O43603)
[5] = receptor galr3_human (GALR3, O60755)

## 45-amino acid cleavage variant of GPR15L (peptide)
GPR15 (human)
  fold improved potency at GPR15 against the 11-amino acid peptide 64 (assay not given): 10 fold

## CC/C=C\C[C@H](O)/C=C/C=C\C=C\C=C\[C@@H](O)[C@@H](O)C/C=C\CCC(=O)O [RvD1]
GPR32; repeat of literature pairing
  Lipid pairing for orphan receptor GPR32 (confirmed/unconfirmed): Unconfirmed lipid pairings for orphans

## CC/C=C\C[C@H](O)/C=C/C=C\C=C\C=C\[C@@H](O)[C@@H](O)C/C=C\CCC(=O)O [resolvin D1]
GPR32; [2]
  receptor-dependent activation by proposed ligand, GPR32: no activity
GPR32; target GPR32
  Comment (response in DMR / internalization assays): No response in any assay
GPR32; target GPR32, reported ligand tested on receptor-expressing cell line
  Active in DMR/internalization: No
Human GPCRs; receptor fpr2_human (FPR2, P25090)
  pEC50_value: 11.9
Human GPCRs; receptor gpr32_human (GPR32), Class A orphans
  pEC50_value: 11.1

## ELEGEQPDGLEHVLEPDTEKADGPYRVEHFRWGNPPKD [Peptide 205]
[1]
  Emax, Tango (fold over basal): 4.9 fold over basal
  pEC50, Tango (fold over basal): 6.21

## HSQGTFTSDYSKYLDS [Peptide 110]
[1]
  Emax, Tango (fold over basal): 4.2 fold over basal
  pEC50, Tango (fold over basal): 5.93

## Neuropeptide NPVF; RFRP-3
NPFF2
  Confirmed? (confirmation of b-arrestin recruitment): No

## PEN: neuroendocrine peptide PEN, proposed GPR83 ligand (AADHDVGSELPPEGVLGALLRV)
GPR83; repeat of literature pairing
  Peptide pairing for orphan receptor GPR83 (confirmed/unconfirmed): Confirmed peptide pairings for orphans
GPR83; repeat of literature pairing across multiple assays, Figure S7A, Tables S5 and S7
  receptor-dependent activation by proposed ligand, GPR83: selective receptor-dependent activation
GPR83; target GPR83
  Comment (response in DMR / internalization / Tango assays): PEN is included in library (peptide 146) and was purchased separately. Active in DMR, inactive in internalization, but also active in Tango
GPR83; target GPR83, reported ligand tested on receptor-expressing cell line
  Active in DMR/internalization: Yes (DMR)

## RSVNPYLQ [Peptide 32]
GPR176
  Emax, Tango (fold over basal): 2.3 fold over basal
  pEC50, Tango (fold over basal): 5.82

## adropin (CHSRSADVDSLSESSPNSSPGPCPEKAPPPQKPSHEGSYLLQP; not fully specified; cysteine pairing not given here; UniProt Q6UWT2 34-76, looked up) [proposed GPR19 ligand]
GPR19; repeat of literature pairing
  Peptide pairing for orphan receptor GPR19 (confirmed/unconfirmed): Unconfirmed peptide pairings for orphans
GPR19; [2]
  receptor-dependent activation by proposed ligand, GPR19: no activity
GPR19; target GPR19
  Comment (response in DMR / internalization assays): No response in any assay
GPR19; target GPR19, reported ligand tested on receptor-expressing cell line
  Active in DMR/internalization: No

## galanin [reference compound]
GPR151; repeat of literature pairing
  Peptide pairing for orphan receptor GPR151 (confirmed/unconfirmed): Unconfirmed peptide pairings for orphans
GPR151; [2]
  receptor-dependent activation by proposed ligand, GPR151: no activity
GPR151; target GPR151
  Comment (response in DMR / internalization assays): Galanin is included in library (peptide 177) and was purchased separately. No response in any assay.
GPR151; target GPR151, reported ligand tested on receptor-expressing cell line
  Active in DMR/internalization: No
Human GPCRs; [3]
  pIC50_value: 9.9
  pKi_value: 10.5
Human GPCRs; [4]
  pEC50_value: 9.1
  pIC50_value: 9.3
  pKi_value: 9.1
Human GPCRs; [5]
  pIC50_value: 7.1
  pKi_value: 7.2

## lysophosphatidic acid
P2RY10
  receptor-dependent activation by proposed ligand, P2RY10: no activity

## lysophosphatidylserine [LPS]
P2RY10; repeat of literature pairing
  Lipid pairing for orphan receptor P2RY10 (confirmed/unconfirmed): Confirmed lipid pairings for orphans
P2RY10
  receptor-dependent activation by proposed ligand, P2RY10: selective receptor-dependent activation
P2RY10; listed as lysophosphatidylserine
  receptor-dependent activation by proposed ligand, P2RY10: marginal
Human GPCRs; receptor gp174_human (GPR174), Class A orphans
  pEC50_value: 7.1
Human GPCRs; receptor gpr34_human (GPR34), Class A orphans
  pEC50_value: 6.9

## peptide 64 (GPR15L_(47-57))
GPR15 (human)
  pEC50 of reduced cyclic AMP (cAMP) production (Gi/o): 6.72 pEC50

## prosaptide
GPR37; repeat of literature pairing
  Peptide pairing for orphan receptor GPR37 (confirmed/unconfirmed): Unconfirmed peptide pairings for orphans
GPR37; [2]
  receptor-dependent activation by proposed ligand, GPR37: no activity
GPR37; target GPR37
  Comment (response in DMR / internalization assays): No response in any assay
GPR37; target GPR37, reported ligand tested on receptor-expressing cell line
  Active in DMR/internalization: No
GPR37L1; repeat of literature pairing
  Peptide pairing for orphan receptor GPR37L1 (confirmed/unconfirmed): Unconfirmed peptide pairings for orphans
GPR37L1; [2]
  receptor-dependent activation by proposed ligand, GPR37L1: no activity
GPR37L1; target GPR37L1
  Comment (response in DMR / internalization assays): No response in any assay
GPR37L1; target GPR37L1, reported ligand tested on receptor-expressing cell line
  Active in DMR/internalization: No

B1: GPR15L (ligand)
peptide: KRRPAKAWSGRRTRLCCHRVPSPNSTNLKGHHVRLCKPCKLEPEPRLWVVPGALPQV
modifications: disulfide (positions not given here)
GPR15 (human)
  fold improved potency at GPR15 against the 11-amino acid peptide 64 (assay not given): 100 fold
